Publication PMC7746945 (Neuro-Oncology, 2020)
“Also recorded” adds a separate entry of the source. Where two headings read alike, the source gives them in different places.

Experiments:
[1] = Whole body autoradiography after single oral [14C]-olaparib; assay type: in vivo, pigmented rats; conditions: for radioactivity concentration, Blood / radioactivity concentration, Brain / radioactivity concentration, Choroid plexus / radioactivity concentration, Kidney cortex (outer) / radioactivity concentration, Large intestine mucosa / radioactivity concentration, Liver / radioactivity concentration, Meninges / radioactivity concentration, Pineal body / radioactivity concentration, Plasma / radioactivity concentration, Small intestine mucosa / radioactivity concentration, Spinal cord: rat, oral [14C]-olaparib 15 mg/kg
Procedure: (§1) Canine kidney epithelial cells, stably expressing human MDR1 cDNA (Madin-Darby canine kidney type II [MDCKII]–MDR1 cells) or empty vector (MDCKII control), were used to model the intact BBB and determine permeability coefficients of (^14C)-olaparib in the presence of ketoconazole (25 μM). Whole body autoradiography was performed on male pigmented rats after single oral administration of [^14C]-olaparib (15 mg/kg; 5 MBq/kg). For autoradiography studies, animal care and experiments were carried out in accordance with AstraZeneca guidelines, which comply with UK standards. […] Xenograft experiments were performed under the relevant UK Home Office Project Licence and carried out with ethical approval from the University of Glasgow under the Animal (Scientific Procedures) Act 1986 and the EU directive 2010. Mice were maintained in individually ventilated cages with environmental enrichment and following the guidelines of ARRIVE (Animal Research: Reporting of In Vivo Experiments). […] Ratiometric t-test analysis determined SER confidence intervals and P-values. Further details are available in the Supplementary Material.
(§2) Apparent permeability coefficients were calculated for apical to basolateral (Papp a‒b) and basolateral to apical transport (Papp b‒a) as described in Methods. […] (B) Single oral doses of 15 mg/kg [14C]-olaparib were administered to male pigmented rats that were subsequently culled, sectioned, and subjected to whole body autoradiography at the timepoints shown. Radioactivity was excluded from the central nervous system in all animals at all timepoints. […] Blood, tumor, and contralateral (non tumor bearing) brain were harvested and snap frozen at the time points shown. […] Note different y-axis scales.
For autoradiography studies, animal care and experiments were carried out in accordance with AstraZeneca guidelines. Male and female pigmented rats and female BALB/c nu/nu mice bearing subcutaneous HCT-116 colorectal carcinoma xenografts were treated with 15 mg/kg [^14C]-olaparib. Animals were culled by asphyxiation, carcasses frozen in hexane and solid carbon dioxide then subjected to whole body autoradiography. Radioactivity concentrations in tissue were quantified from whole-body autoradiograms using a validated image analysis system.

[2] = Olaparib PK in mice bearing intracranial G7 GBM xenografts (mass spectrometry); assay type: in vivo, CD1 nude mice; conditions: 50 mg/kg
Procedure: as §1, §2

[3] = test system: E2 cells; assay: Clonogenic survival radiosensitization assay; assay type: cell-based, human; conditions: E2, MGMT methylated, 1–5 Gy
Procedure: as §1
(§3) Visible colonies containing at least 50 cells were counted 14–21 days after treatment and surviving fraction calculated. The linear quadratic model was fitted using maximum likelihood estimation and integrated to determine the mean inactivation dose (MID) for each experimental condition.

[4] = test system: G1 cells; assay: Clonogenic survival radiosensitization assay; assay type: cell-based, human; conditions: G1, MGMT methylated, olaparib 100 nM, 1–5 Gy
Procedure: as §1, §3

[5] = test system: G7 cells; assay: Clonogenic survival radiosensitization assay; assay type: cell-based, human; conditions: G7, MGMT methylated, 1–5 Gy
Procedure: as §1, §3

[6] = test system: R10 cells; assay: Clonogenic survival radiosensitization assay; assay type: cell-based, human; conditions: R10, MGMT methylated, 1–5 Gy
Procedure: as §1, §3

[7] = test system: T98G cells; assay: Clonogenic survival radiosensitization assay; assay type: cell-based, human; conditions: MGMT unmethylated, 1–5 Gy
Procedure: as §1, §3

[8] = test system: UVW cells; assay: Clonogenic survival radiosensitization assay; assay type: cell-based, human; conditions: MGMT methylated, 1–5 Gy
Procedure: as §1, §3

[9] = target: T1, MDR1 (Homo sapiens, UniProt P08183); assay: Directional transport of [14C]-olaparib across MDCKII-MDR1 monolayers, with or without ketoconazole; assay type: in vitro ADME
T1 construct: host or cells: MDCKII (Madin-Darby canine kidney type II) cells stably expressing human MDR1 cDNA
T1 sequence (P08183 whole entry): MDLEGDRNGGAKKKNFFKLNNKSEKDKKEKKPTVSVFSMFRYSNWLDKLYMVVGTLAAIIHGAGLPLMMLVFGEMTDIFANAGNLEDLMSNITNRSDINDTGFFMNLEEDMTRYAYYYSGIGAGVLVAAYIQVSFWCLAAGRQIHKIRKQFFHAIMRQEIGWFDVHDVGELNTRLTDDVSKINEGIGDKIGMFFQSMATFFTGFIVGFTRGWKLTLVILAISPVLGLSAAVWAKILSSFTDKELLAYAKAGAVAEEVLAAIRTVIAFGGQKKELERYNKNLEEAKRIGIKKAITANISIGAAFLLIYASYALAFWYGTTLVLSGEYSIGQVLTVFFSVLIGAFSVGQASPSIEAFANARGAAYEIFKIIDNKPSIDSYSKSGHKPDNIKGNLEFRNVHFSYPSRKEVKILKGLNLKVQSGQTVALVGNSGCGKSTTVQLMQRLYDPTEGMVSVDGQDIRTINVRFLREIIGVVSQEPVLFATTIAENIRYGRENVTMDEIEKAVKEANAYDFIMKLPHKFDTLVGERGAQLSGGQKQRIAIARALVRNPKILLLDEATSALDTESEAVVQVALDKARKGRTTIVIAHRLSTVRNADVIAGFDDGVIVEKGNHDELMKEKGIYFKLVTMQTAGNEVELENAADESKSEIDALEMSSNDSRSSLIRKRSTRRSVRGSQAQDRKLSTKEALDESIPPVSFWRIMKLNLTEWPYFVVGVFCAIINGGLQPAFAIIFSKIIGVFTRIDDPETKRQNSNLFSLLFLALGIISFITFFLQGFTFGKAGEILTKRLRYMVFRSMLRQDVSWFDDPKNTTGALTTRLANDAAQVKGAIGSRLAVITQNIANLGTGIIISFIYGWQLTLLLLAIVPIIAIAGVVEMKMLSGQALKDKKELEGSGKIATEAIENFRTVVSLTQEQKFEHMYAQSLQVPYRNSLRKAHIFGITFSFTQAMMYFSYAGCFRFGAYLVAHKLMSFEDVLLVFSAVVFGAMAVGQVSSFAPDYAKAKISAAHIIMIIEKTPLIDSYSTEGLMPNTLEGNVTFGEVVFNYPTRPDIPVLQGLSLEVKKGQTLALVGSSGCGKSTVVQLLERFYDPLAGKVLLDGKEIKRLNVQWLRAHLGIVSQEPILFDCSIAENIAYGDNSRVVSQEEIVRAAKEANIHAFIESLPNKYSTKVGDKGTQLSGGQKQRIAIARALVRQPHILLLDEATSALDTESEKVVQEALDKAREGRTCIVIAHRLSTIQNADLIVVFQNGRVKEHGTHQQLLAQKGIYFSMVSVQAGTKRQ

O=C(c1cc(Cc2n[nH]c(=O)c3ccccc23)ccc1F)N1CCN(C(=O)C2CC2)CC1 [olaparib, 4-[3-(4-cyclopropanecarbonylpiperazine-1-carbonyl)-4-fluorobenzyl]-2H-phthalazin-1-one]
radioactivity in brain or spinal cord (brain penetration) ([1]; male and female rats, single [14C]-olaparib 15 mg/kg, 5 MBq/kg, any timepoint): no brain penetration; also recorded: undetectable
radioactivity concentration, Blood ([1]; 1 hr): 2.44 nmol equivalents of olaparib per gram of tissue
radioactivity concentration, Brain ([1]; 1 hr): BLQ
radioactivity concentration, Choroid plexus ([1]; 1 hr): 0.618 nmol equivalents of olaparib per gram of tissue
radioactivity concentration, Kidney cortex (outer) ([1]; 1 hr): 9.52 nmol equivalents of olaparib per gram of tissue
radioactivity concentration, Large intestine mucosa ([1]; 1 hr): 12.1 nmol equivalents of olaparib per gram of tissue
radioactivity concentration, Liver ([1]; 1 hr): 112 nmol equivalents of olaparib per gram of tissue
radioactivity concentration, Meninges ([1]; 1 hr): 0.847 nmol equivalents of olaparib per gram of tissue
radioactivity concentration, Pineal body ([1]; 1 hr): 2.13 nmol equivalents of olaparib per gram of tissue
radioactivity concentration, Plasma ([1]; 1 hr): 9.69 nmol equivalents of olaparib per gram of tissue
radioactivity concentration, Small intestine mucosa ([1]; 1 hr): 60.5 nmol equivalents of olaparib per gram of tissue
radioactivity concentration, Spinal cord ([1]; 1 hr): BLQ
radioactivity concentration, Blood ([1]; 4 hr): 0.729 nmol equivalents of olaparib per gram of tissue
radioactivity concentration, Brain ([1]; 4 hr): BLQ
radioactivity concentration, Choroid plexus ([1]; 4 hr): 0.228 nmol equivalents of olaparib per gram of tissue
radioactivity concentration, Kidney cortex (outer) ([1]; 4 hr): 3.16 nmol equivalents of olaparib per gram of tissue
radioactivity concentration, Large intestine mucosa ([1]; 4 hr): 11.1 nmol equivalents of olaparib per gram of tissue
radioactivity concentration, Liver ([1]; 4 hr): 49.3 nmol equivalents of olaparib per gram of tissue
radioactivity concentration, Meninges ([1]; 4 hr): 0.500 nmol equivalents of olaparib per gram of tissue
radioactivity concentration, Pineal body ([1]; 4 hr): 0.318 nmol equivalents of olaparib per gram of tissue
radioactivity concentration, Plasma ([1]; 4 hr): 2.11 nmol equivalents of olaparib per gram of tissue
radioactivity concentration, Small intestine mucosa ([1]; 4 hr): 19.1 nmol equivalents of olaparib per gram of tissue
radioactivity concentration, Spinal cord ([1]; 4 hr): BLQ
radioactivity concentration, Blood ([1]; 8 hr): 0.171 nmol equivalents of olaparib per gram of tissue
radioactivity concentration, Brain ([1]; 8 hr): BLQ
radioactivity concentration, Choroid plexus ([1]; 8 hr): BLQ
radioactivity concentration, Kidney cortex (outer) ([1]; 8 hr): 1.49 nmol equivalents of olaparib per gram of tissue
radioactivity concentration, Large intestine mucosa ([1]; 8 hr): 39.8 nmol equivalents of olaparib per gram of tissue
radioactivity concentration, Liver ([1]; 8 hr): 14.7 nmol equivalents of olaparib per gram of tissue
radioactivity concentration, Meninges ([1]; 8 hr): BLQ
radioactivity concentration, Pineal body ([1]; 8 hr): 0.248 nmol equivalents of olaparib per gram of tissue
radioactivity concentration, Plasma ([1]; 8 hr): 0.180 nmol equivalents of olaparib per gram of tissue
radioactivity concentration, Small intestine mucosa ([1]; 8 hr): 7.93 nmol equivalents of olaparib per gram of tissue
radioactivity concentration, Spinal cord ([1]; 8 hr): BLQ
radioactivity concentration, Blood ([1]; 24 hr): BLQ^3
radioactivity concentration, Brain ([1]; 24 hr): BLQ
radioactivity concentration, Choroid plexus ([1]; 24 hr): BLQ
radioactivity concentration, Kidney cortex (outer) ([1]; 24 hr): 0.248 nmol equivalents of olaparib per gram of tissue
radioactivity concentration, Large intestine mucosa ([1]; 24 hr): 2.10 nmol equivalents of olaparib per gram of tissue
radioactivity concentration, Liver ([1]; 24 hr): 2.23 nmol equivalents of olaparib per gram of tissue
radioactivity concentration, Meninges ([1]; 24 hr): BLQ
radioactivity concentration, Pineal body ([1]; 24 hr): BLQ
radioactivity concentration, Plasma ([1]; 24 hr): 0.046 nmol equivalents of olaparib per gram of tissue
radioactivity concentration, Small intestine mucosa ([1]; 24 hr): 1.19 nmol equivalents of olaparib per gram of tissue
radioactivity concentration, Spinal cord ([1]; 24 hr): BLQ
radioactivity concentration, Blood ([1]; 72 hr): BLQ
radioactivity concentration, Brain ([1]; 72 hr): BLQ
radioactivity concentration, Choroid plexus ([1]; 72 hr): BLQ
radioactivity concentration, Kidney cortex (outer) ([1]; 72 hr): 0.202 nmol equivalents of olaparib per gram of tissue
radioactivity concentration, Large intestine mucosa ([1]; 72 hr): BLQ
radioactivity concentration, Liver ([1]; 72 hr): 0.604 nmol equivalents of olaparib per gram of tissue
radioactivity concentration, Meninges ([1]; 72 hr): BLQ
radioactivity concentration, Pineal body ([1]; 72 hr): BLQ
radioactivity concentration, Plasma ([1]; 72 hr): 0.009 nmol equivalents of olaparib per gram of tissue
radioactivity concentration, Small intestine mucosa ([1]; 72 hr): BLQ
radioactivity concentration, Spinal cord ([1]; 72 hr): BLQ
radioactivity concentration, Blood ([1]; 168 hr): BLQ
radioactivity concentration, Brain ([1]; 168 hr): BLQ
radioactivity concentration, Choroid plexus ([1]; 168 hr): BLQ
radioactivity concentration, Kidney cortex (outer) ([1]; 168 hr): BLQ
radioactivity concentration, Large intestine mucosa ([1]; 168 hr): BLQ
radioactivity concentration, Liver ([1]; 168 hr): 0.164 nmol equivalents of olaparib per gram of tissue
radioactivity concentration, Meninges ([1]; 168 hr): BLQ
radioactivity concentration, Pineal body ([1]; 168 hr): BLQ
radioactivity concentration, Small intestine mucosa ([1]; 168 hr): BLQ
radioactivity concentration, Spinal cord ([1]; 168 hr): BLQ
olaparib in contralateral hemisphere ([2]; 5 and 24 hours): undetectable
olaparib in tumor specimens ([2]; 5 hours): detectable in one tumor specimen
concentration at 2 h ([2]; CD1 nude, mouse, contralateral (non-tumor bearing) brain, oral, contralateral (non-tumor bearing) cerebral hemisphere olaparib concentration, median, 50 mg/kg oral gavage): 84 nM
concentration at 2 h ([2]; CD1 nude, mouse, contralateral (non-tumor bearing) brain, oral, contralateral (non-tumor bearing) cerebral hemisphere olaparib concentration, range, 50 mg/kg oral gavage): 53 to 114 nM
concentration at 2 h ([2]; CD1 nude, mouse, plasma, oral, plasma olaparib level, median, 50 mg/kg oral gavage): 1590 nM
concentration at 5 h ([2]; CD1 nude, mouse, plasma, oral, plasma olaparib level, median, 50 mg/kg oral gavage, 5 hours): 230 nM
concentration at 2 h ([2]; CD1 nude, mouse, plasma, oral, plasma olaparib level, range, 50 mg/kg oral gavage): 773 to 2830 nM
concentration at 2 h ([2]; CD1 nude, mouse, tumor, po, tumor olaparib concentration, median, intracranial G7 xenograft, 50 mg/kg oral gavage): 347 nM
concentration at 2 h ([2]; CD1 nude, mouse, tumor, po, tumor olaparib concentration, range, intracranial G7 xenograft, 50 mg/kg oral gavage, 4 mice): 110 to 2780 nM
SER (95% CI) 100nM ([3]; olaparib 100 nM): 1.237 (1.065 - 1.441)
SER (95% CI) 500nM ([3]; olaparib 500 nM): 1.221 (1.076 - 1.378)
SER (95% CI) 100nM [4]: 1.225 (1.01 - 1.513)
SER (95% CI) 100nM ([5]; olaparib 100 nM): 1.105 (1.018 - 1.200)
SER (95% CI) 500nM ([5]; olaparib 500 nM): 1.188 (1.029 - 1.390)
SER (95% CI) 100nM ([6]; olaparib 100 nM): 1.266 (0.991 - 1.565)
SER (95% CI) 500nM ([6]; olaparib 500 nM): 1.281 (0.966 - 1.721)
SER (95% CI) 100nM ([7]; olaparib 100 nM): 1.42 (1.128 - 1.883)
SER (95% CI) 500nM ([7]; olaparib 500 nM): 1.584 (1.464 - 1.71)
SER (95% CI) 100nM ([8]; olaparib 100 nM): 1.478 (1.28 - 1.726)
SER (95% CI) 500nM ([8]; olaparib 500 nM): 1.695 (1.407 - 2.098)
Papp A→B at 120 min, 3 µM ([9]; human, MDCK-MDR1): 0.53 ×10⁻⁶ cm/s
Papp B→A at 120 min, 3 µM ([9]; human, MDCK-MDR1, with ketoconazole 25 µM, read-out: Papp b-a + ketoconazole (SD)): 16.3 ×10⁻⁶ cm/s
Papp B→A at 120 min, 3 µM ([9]; human, MDCK-MDR1, read-out: Papp b-a (SD)): 42.7 ×10⁻⁶ cm/s
MDR1 substrate status ([9]; olaparib 1–10 µM): substrate for multidrug resistance protein 1; also recorded: substrate for MDR1
reduction of apparent permeability of MDCKII-MDR1 cells to olaparib by ketoconazole ([9]; olaparib 1–10 µM, ketoconazole 25 µM): 40–62%
